# Values of other authors in US7682636B2 (Metaproteomics, LLC, priority 2001, dated 2010).
# Legend:
# [1] = test system: osteoarthritis of the knee in outpatients; conditions: 1500 mg glucosamine sulfate per day versus 1200 mg ibuprofen
# [2] = test system: COX-2 over COX-1; conditions: reported, background
SMILES,pain scores [1],COX-2 specificity [2]
CC(C)Cc1ccc(C(C)C(=O)O)cc1 (stereo not drawn) [ibuprofen],pain scores decreased faster during the first two weeks in the ibuprofen patients than in the glucosamine-treated patients,
"N[C@H]1C(O)O[C@H](CO)[C@@H](O)[C@@H]1O.O=S(=O)(O)O (stereo partly drawn) [glucosamine, glucosamine sulfate]",difference between the two groups turned significantly in favor of glucosamine by week eight,
CC(=O)Oc1ccccc1C(=O)O [aspirin],,0.6
